Measurements taken from patent publication US12221481B2, “CD19 binding molecules and uses thereof” (Novartis AG, priority 2019, dated 2025).

Key:
[1] = test system: T cells; assay: TBM and BBM mediated T cell proliferation (Example 20); format: cell-based, human; conditions: in the presence of OCI-LY-19 and Toledo cells
Method: Briefly, OCI-LY-19, Karpas422, and Toledo target cells stably expressing firefly luciferase were plated in a 96 well plate in T Cell Media (TCM) (RPMI-1640, ThermoFisher Scientific, Cat #11875-085), 10% FBS (Seradigm, Cat #1500-500), 1% L-Glutamine (Thermo Fisher Scientific, Cat #25830-081), 1% Non Essential Amino Acids (Thermo Fisher Scientific, Cat #11140-050), 1% Pen/Strep (Thermo Fisher Scientific, Cat #15070063), 1% HEPES (Thermo Fisher Scientific, Cat #15630080), Sodium Pyruvate (Thermo Fisher Scientific, Cat #11360-070), 0.1% Beta-mercaptoethanol (Thermo Fisher Scientific, Cat #21985-023)]. PBMCs previously isolated and cryopreserved from 2 Leukopak donors were thawed and Pan T cells were isolated (as described earlier). Isolated T cells were labelled with 5 μM Cell Trace Violet (CTV) (Thermo Fisher Scientific, Cat #C34557) following the manufacturer's protocol and were co-cultured with target cells at an E:T ratio of 1:3. A dilution series of CD3med TSP1, CD3hi TSP1, CD3hi BSP1, CD3hi TSP1C, and blinatumomab ranging from 2.5 nM-0.0006 nM was added to cells and the plates were incubated in a 5% CO2, 37° C. incubator for 96 hrs. […]

[2] = test system: Karpas422 target cells; assay: Re-challenge RTCC assay, Karpas 422; format: cell-based, human; conditions: last re-challenge
Method: OCI-LY-19 and Karpas422 target cells stably expressing firefly luciferase were plated in a Costar 6 well plate in T Cell Media (TCM). PBMCs previously isolated and cryopreserved from 2 Leukopak donors were thawed and Pan T cells were isolated (as described earlier). […] The plates were incubated for 4 days for OCI-LY-19 and 5 days for Karpas 422 cells. At the end of incubation, the killing of target cells was determined using the luminescence signal. The absolute T cell counts from each antibody treated condition was also determined. For the next round of rechallenge, it was ensured that the killing of target cells was equivalent across various antibody conditions. […] Additionally, a dose titration RTCC at a E:T of 1:1 and a concentration range of 2 nM-0.000001 nM was set-up using T cells from the different antibody treated conditions with a 4 day incubation used for each cell line. The killing of target cells was determined using the luminescence signal to generate dose response curves. At the end of the challenge, the above process was repeated once more for Karpas 422 and twice more for OCI-LY-19 cells.

For “blinatumomab: bispecific T cell engager, or BiTE, that binds to both CD19 and CD3 but lacks an Fc domain [reference compound]”, the “T cell proliferation, potency compared between constructs” value [1] was “most potent T cell proliferation” and the maximum lysis [2] was “higher maximum lysis than CD3hi TSP1”.
